We go through three molecules from publication PMC7988496, “Sphingomyelin synthase-related protein generates diacylglycerol via the hydrolysis of glycerophospholipids in the absence of ceramide” (The Journal of Biological Chemistry, 2021).

One data set has as its target T1, SMSr-V5 (Homo sapiens, UniProt Q96LT4).
T1 construct: gene SAMD8
T1 sequence (Q96LT4 1-415): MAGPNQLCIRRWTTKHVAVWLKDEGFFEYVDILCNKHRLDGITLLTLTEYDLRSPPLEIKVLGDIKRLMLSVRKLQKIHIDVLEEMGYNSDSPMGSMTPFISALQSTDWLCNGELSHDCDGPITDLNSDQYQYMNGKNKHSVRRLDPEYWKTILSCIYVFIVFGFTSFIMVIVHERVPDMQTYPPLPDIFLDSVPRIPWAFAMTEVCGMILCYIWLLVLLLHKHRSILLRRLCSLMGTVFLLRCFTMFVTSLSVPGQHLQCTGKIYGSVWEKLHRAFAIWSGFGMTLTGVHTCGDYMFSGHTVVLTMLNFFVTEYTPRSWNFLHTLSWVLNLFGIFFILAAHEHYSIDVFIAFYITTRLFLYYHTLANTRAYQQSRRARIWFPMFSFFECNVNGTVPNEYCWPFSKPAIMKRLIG
The data set is described as follows: anti-V5 immunoprecipitate, […]:1-DG quantified by LC-MS/MS. The format is biochemical.

Substrate in data set [1]: CCCCCCCC/C=C\CCCCCCCC(=O)O[C@H](COC(=O)CCCCCCCCCCCCCCC)COP(=O)(O)O
In words: DDM/CHS mixed micellar assay, DG quantified by LC-MS/MS. Type of data set: biochemical, Homo sapiens. As to conditions: PAP activity, no ceramide, pH 7.4, 37 °C, 2 h, 0.1% DDM, 0.02% CHS, surface-dilution Km also printed as 3.92 ± 0.536 mol%. The source says: DDM/CHS mixed micellar assay, DG quantified by LC-MS/MS on 6× His-SMSr-ΔSAMD

Take `CCCCCCCC/C=C\CCCCCCCC(=O)O[C@H](COC(=O)CCCCCCCCCCCCCCC)COP(=O)(O)O` [16:0/18:1-PA, 1-palmitoyl-2-oleoyl (16:0/18:1)-PA]: the “anti-V5 immunoprecipitate, 16:0/18:1-DG quantified by LC-MS/MS” value on SMSr-V5 (PAP activity) was “The SMSr expressed in the COS-7 cells exhibited PAP and PI-PLC activities”.

Turning to `CCCCCCCC/C=C\CCCCCCCC(=O)O[C@H](COC(=O)CCCCCCCCCCCCCCC)COP(=O)(O)O[C@@H]1[C@H](O)[C@H](O)[C@@H](O)[C@H](O)[C@H]1O` [16:0/18:1-PI, 1-palmitoyl-2-oleoyl-sn-glycero-3-phosphoinositol], the “anti-V5 immunoprecipitate, 16:0/18:1-DG quantified by LC-MS/MS” value at SMSr-V5 (PI-PLC activity) was “The SMSr expressed in the COS-7 cells exhibited PAP and PI-PLC activities”.

B1: 6× His-SMSr-ΔSAMD (Homo sapiens) (protein)
chain: HIDVLEEMGYNSDSPMGSMTPFISALQSTDWLCNGELSHDCDGPITDLNSDQYQYMNGKNKHSVRRLDPEYWKTILSCIYVFIVFGFTSFIMVIVHERVPDMQTYPPLPDIFLDSVPRIPWAFAMTEVCGMILCYIWLLVLLLHKHRSILLRRLCSLMGTVFLLRCFTMFVTSLSVPGQHLQCTGKIYGSVWEKLHRAFAIWSGFGMTLTGVHTCGDYMFSGHTVVLTMLNFFVTEYTPRSWNFLHTLSWVLNLFGIFFILAAHEHYSIDVFIAFYITTRLFLYYHTLANTRAYQQSRRARIWFPMFSFFECNVNGTVPNEYCWPFSKPAIMKRL
On to B1, for which the Km in data set [1] was 97.4 ± 13.3 µM.
